Laboratory results taken from US7527952B2 (Vertex Pharmaceuticals Incorporated, priority 1996, dated 2009).

Legend:
[1] = compared with MPA; cited from earlier work
[2] = tested on: human type II IMPDH mutants of Ser 275, Ser 327 and Gln 368; test: MPA inhibition of IMPDH mutants of other active site residues; assay type: biochemical; settings: mutations of Ser 275, Ser 327 and Gln 368
Method: Residues which make direct contact with MPA also were modified.
Cultures (500 ml) were grown at 37° C. for 14 to 16 hours after IPTG induction, and typically yielded 2 grams of cell paste. Cells were resuspended in 50 mM Tris, pH 8.0, 150 mM KCl, 3 mM EDTA, 2 mM DTT buffer containing 10% urea, and then lysed by addition of lysozyme (1 mg/g cell paste) and sonication. IMPDH wild-type and mutant proteins were precipitated from crude lysates by 25% w/v ammonium sulfate. Up to 150 mgs of at least 65%-70% pure IMPDH was obtained by this single purification step. The partially purified IMPDH was resuspended in 50 mM Tris, pH 8.0, 100 mM KCl, 3 mM EDTA, 2 mM DTT, 10% glycerol buffer and used for kinetic analysis. Second order rate constants (k cat/Km, M^−1sec^−1) were calculated from IMP titration data at saturating (400 mM). NAD concentration obtained by monitoring the rate of NADH production at 340 nm at 37° C. […] Ki app. values for MPA were obtained from the rate vs. inhibitor data of IMPDH mutants at saturating IMP and NAD concentrations.

murine blastoma cells = settings: cells selected for resistance, carrying the Thr 333 to Ile mutation; cited from earlier work

COc1c(CC=C(C)CCC(=O)O)cc2c(c1C)COC2=O [des-hydroxy-MPA]
fold less potent than MPA in a cellular assay [1]: at least 1,000 fold

mycophenolic acid [MPA]
effect of mutation on drug inhibition [2]: little effect | increased resistance to MPA (murine blastoma cells): 10,000 fold
